Measured values as given in BindingDB's records for doi:10.1021/acs.jmedchem.9b00742 (Leiden University, 2019).

Legend:
[1] = target: T1, C-C chemokine receptor type 5 (Homo sapiens, UniProt P51681); assay: Non-competitive insurmountable antagonist activity at human CCR5 expressed in human U2OS cell membranes assessed as pEC50 for CCL3-stimulated [35S]GTPgammaS binding at 300 nM preincubated for 30 mins followed by [35S]GTPgammaS addition and measured after 90 mins (Rvb = 8.42 +/- 0.06 No_unit)
T1 sequence (P51681 whole entry): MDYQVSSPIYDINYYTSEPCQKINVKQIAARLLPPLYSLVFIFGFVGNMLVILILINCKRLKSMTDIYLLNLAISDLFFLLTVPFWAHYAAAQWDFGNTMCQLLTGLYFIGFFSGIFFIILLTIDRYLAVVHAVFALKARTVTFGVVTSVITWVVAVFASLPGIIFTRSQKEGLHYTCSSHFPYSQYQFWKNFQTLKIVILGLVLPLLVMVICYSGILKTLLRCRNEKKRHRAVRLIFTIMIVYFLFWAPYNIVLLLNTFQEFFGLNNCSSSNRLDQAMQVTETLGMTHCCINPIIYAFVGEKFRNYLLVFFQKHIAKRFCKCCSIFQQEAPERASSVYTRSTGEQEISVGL

[2] = target: T2, C-C chemokine receptor type 2 (Homo sapiens, UniProt P41597); assay: Non-competitive insurmountable antagonist activity at human CCR2 expressed in human U2OS cell membranes assessed as EC50 for CCL2-stimulated [35S]GTPgammaS binding at 10 nM preincubated for 30 mins followed by [35S]GTPgammaS addition and measured after 90 mins (Rvb = 8 nM)
T2 sequence (P41597 whole entry): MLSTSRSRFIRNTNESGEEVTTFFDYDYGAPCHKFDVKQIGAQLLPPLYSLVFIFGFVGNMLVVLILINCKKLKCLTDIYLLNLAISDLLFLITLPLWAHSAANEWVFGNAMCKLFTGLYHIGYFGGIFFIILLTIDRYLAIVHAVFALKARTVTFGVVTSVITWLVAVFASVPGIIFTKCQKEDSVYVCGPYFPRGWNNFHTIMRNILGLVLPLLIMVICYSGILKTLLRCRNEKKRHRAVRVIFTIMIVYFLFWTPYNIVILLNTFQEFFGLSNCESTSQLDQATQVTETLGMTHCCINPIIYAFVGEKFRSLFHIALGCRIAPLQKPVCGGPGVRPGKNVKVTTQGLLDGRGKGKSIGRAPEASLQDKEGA

[3] = target: T1, C-C chemokine receptor type 5; assay: Non-competitive insurmountable antagonist activity at human CCR5 expressed in human U2OS cell membranes assessed as pEC50 for CCL3-stimulated [35S]GTPgammaS binding at 100 nM preincubated for 30 mins followed by [35S]GTPgammaS addition and measured after 90 mins (Rvb = 8.42 +/- 0.06 No_unit)
[4] = target: T2, C-C chemokine receptor type 2; assay: Non-competitive insurmountable antagonist activity at human CCR2 expressed in human U2OS cell membranes assessed as EC50 for CCL2-stimulated [35S]GTPgammaS binding at 3 nM preincubated for 30 mins followed by [35S]GTPgammaS addition and measured after 90 mins (Rvb = 8 nM)
[5] = target: T2, C-C chemokine receptor type 2; assay: Non-competitive insurmountable antagonist activity at human CCR2 expressed in human U2OS cell membranes assessed as pEC50 for CCL2-stimulated [35S]GTPgammaS binding at 10 nM preincubated for 30 mins followed by [35S]GTPgammaS addition and measured after 90 mins (Rvb = 8.10 +/- 0.06 No_unit)
[6] = target: T2, C-C chemokine receptor type 2; assay: Non-competitive insurmountable antagonist activity at human CCR2 expressed in human U2OS cell membranes assessed as EC50 for CCL2-stimulated [35S]GTPgammaS binding at 1 nM preincubated for 30 mins followed by [35S]GTPgammaS addition and measured after 90 mins (Rvb = 8 nM)
[7] = target: T1, C-C chemokine receptor type 5; assay: Non-competitive insurmountable antagonist activity at human CCR5 expressed in human U2OS cell membranes assessed as EC50 for CCL3-stimulated [35S]GTPgammaS binding at 100 nM preincubated for 30 mins followed by [35S]GTPgammaS addition and measured after 90 mins (Rvb = 4 nM)
[8] = target: T2, C-C chemokine receptor type 2; assay: Non-competitive insurmountable antagonist activity at human CCR2 expressed in human U2OS cell membranes assessed as pEC50 for CCL2-stimulated [35S]GTPgammaS binding at 1 nM preincubated for 30 mins followed by [35S]GTPgammaS addition and measured after 90 mins (Rvb = 8.10 +/- 0.06 No_unit)
[9] = target: T2, C-C chemokine receptor type 2; assay: Non-competitive insurmountable antagonist activity at human CCR2 expressed in human U2OS cell membranes assessed as pEC50 for CCL2-stimulated [35S]GTPgammaS binding at 3 nM preincubated for 30 mins followed by [35S]GTPgammaS addition and measured after 90 mins (Rvb = 8.10 +/- 0.06 No_unit)
[10] = target: T1, C-C chemokine receptor type 5; assay: Non-competitive insurmountable antagonist activity at human CCR5 expressed in human U2OS cell membranes assessed as EC50 for CCL3-stimulated [35S]GTPgammaS binding at 300 nM preincubated for 30 mins followed by [35S]GTPgammaS addition and measured after 90 mins (Rvb = 4 nM)
[11] = target: T1, C-C chemokine receptor type 5; assay: Non-competitive insurmountable antagonist activity at human CCR5 expressed in human U2OS cell membranes assessed as pEC50 for CCL3-stimulated [35S]GTPgammaS binding at 30 nM preincubated for 30 mins followed by [35S]GTPgammaS addition and measured after 90 mins (Rvb = 8.42 +/- 0.06 No_unit)
[12] = target: T2, C-C chemokine receptor type 2; assay: Antagonist activity at CCR2b in human THP1 cells assessed as inhibition of human MCP1 induced calcium flux by fluo-4 dye based fluorescence assay
[13] = target: T1, C-C chemokine receptor type 5; assay: Non-competitive insurmountable antagonist activity at human CCR5 expressed in human U2OS cell membranes assessed as EC50 for CCL3-stimulated [35S]GTPgammaS binding at 1000 nM preincubated for 30 mins followed by [35S]GTPgammaS addition and measured after 90 mins (Rvb = 4 nM)
[14] = target: T2, C-C chemokine receptor type 2; assay: Non-competitive insurmountable antagonist activity at human CCR2 expressed in human U2OS cell membranes assessed as pEC50 for CCL2-stimulated [35S]GTPgammaS binding at 30 nM preincubated for 30 mins followed by [35S]GTPgammaS addition and measured after 90 mins (Rvb = 8.10 +/- 0.06 No_unit)
[15] = target: T2, C-C chemokine receptor type 2; assay: Non-competitive insurmountable antagonist activity at human CCR2 expressed in human U2OS cell membranes assessed as pEC50 for CCL2-stimulated [35S]GTPgammaS binding at 100 nM preincubated for 30 mins followed by [35S]GTPgammaS addition and measured after 90 mins (Rvb = 8.10 +/- 0.06 No_unit)
[16] = target: T2, C-C chemokine receptor type 2; assay: Displacement of [3H]-CCR2-RA-[R] from human CCR2 expressed in human U2OS cells incubated for 2 hrs by scintillation spectrometric method

| Structure (SMILES) | EC50 [1] [nM] | EC50 [2] [nM] | EC50 [3] [nM] | EC50 [5] [nM] | EC50 [7] [nM] | EC50 [10] [nM] | Ki [16] [nM] | further results |
| --- | --- | --- | --- | --- | --- | --- | --- | --- |
| CC(C)c1[nH]c2nc(N)nn2c(=O)c1Cc1ccc(Cl)c(Br)c1 | 8.9 | 148 | 6.2 | 135 | 6.0 | 9.0 | – | EC50 [4]: 32 nM; EC50 [6]: 13 nM; EC50 [8]: 12 nM; EC50 [9]: 30 nM; EC50 [11]: 5.0 nM |
| O=c1c(Cc2cccc(Cl)c2)c(C2CC2)[nH]c2ncnn12 | – | – | – | – | – | – | – | IC50 [12]: 16 nM |
| CC(C)c1[nH]c2nc(N)nn2c(=O)c1Cc1cccc(Cl)c1Cl | 7.2 | 13 | 4.5 | 13 | 5.0 | 8.0 | – | EC50 [13]: 9.0 nM; EC50 [14]: 25 nM; EC50 [15]: 54 nM |
| Nc1nc2[nH]c(-c3ccccc3)c(Cc3cccc(Cl)c3)c(=O)n2n1 | – | – | – | – | – | – | 22.9 | – |
| Nc1nc2[nH]c(C3CC3)c(Cc3ccc(Cl)c(Cl)c3)c(=O)n2n1 | – | – | – | – | – | – | 0.447 | – |
| Nc1nc2[nH]c(C3CC3)c(Cc3cccc(F)c3)c(=O)n2n1 | – | – | – | – | – | – | 2.95 | – |
